According to US20230150920A1, “SALTS AND SOLID FORMS OF 4-BROMO-2,5-DIMETHOXYPHENETHYLAMINE” (priority 2021, published 2023):
Where a name gives a salt, the structure may show the parent alone.

What was measured:
[1] = Solubility estimate by adding solvent aliquots to weighed solid, dissolution judged visually; conditions: thermodynamic from solid
[2] = Dynamic vapor sorption/desorption (DVS), hygroscopicity; assay type: physicochemical; conditions: for Water uptake (5-85% RH) %: 5-85% RH part of sorption; for Water uptake (85-95% RH) %: 85-95% RH part of sorption; for Hygroscopicity: grade in words, from DVS; for Water uptake (5-95% RH) %: total
Experimental: The active pharmaceutical ingredient (API), 4-bromo-2,5-dimethoxyphenethylamine hydrochloride, is characterized to evaluate its physical properties. The evaluation is performed by X-ray powder diffraction (XRPD), polarized light microscopy (PLM), differential scanning calorimetry (DSC), thermogravimetry (TG), dynamic vapor sorption/desorption (DVS), and/or solubility testing in organic solvents, water, and mixed solvent systems. XRPD data are used to assess crystallinity. PLM data are used to evaluate crystallinity and particle size/morphology. DSC data are used to evaluate melting point, thermal stability, and crystalline form conversion. TG data are used to evaluate if the API is a solvate or hydrate, and to evaluate thermal stability. DVS data are used to evaluate hygroscopicity of the API and if hydrates can be formed at high relative humidity.
The form characterized in FIGS. 1 and 2 is designated as Form A herein. […] A sharp endotherm at 238° C. in the DSC thermogram is attributed to melting.

[3] = Dynamic vapor sorption (DVS) with XRPD of the post-DVS sample; assay type: physicochemical; conditions: for hygroscopicity based on DVS data / moisture gain by DVS / moisture gain by DVS, equivalent moles of water: 25° C.; for hygroscopicity based on DVS data: 5 to 95% RH; for moisture gain by DVS / moisture gain by DVS, equivalent moles of water: adsorption 5 to 95% RH; for post-DVS XRPD result: XRPD of the post-DVS sample; for DVS desorption weight loss, 85-5% RH: desorption 85-5% RH; for DVS desorption weight loss, 95-85% RH: desorption 95-85% RH; for behaviour on desorption / form change by XRPD of post-DVS sample: desorption 95 to 5% RH; for DVS sorption weight gain, 5-85% RH: sorption 5-85% RH; for DVS sorption weight gain, 85-95% RH: sorption 85-95% RH
Experimental: Dynamic Vapor Sorption (DVS) analysis was carried out using a TA Instruments Q5000 Dynamic Vapor Sorption analyzer. The instrument was calibrated with standard weights and a sodium bromide standard for humidity. Approximately 10-25 mg of sample was loaded into a metal-coated quartz pan for analysis. The sample was analyzed at 25° C. with a maximum equilibration time of one hour in 10% relative humidity (RH) steps from 5 to 95% RH (adsorption cycle) and from 95 to 5% RH (desorption cycle). The movement from one step to the next occurred either after satisfying the equilibrium criterion of 0.01% weight change or, if the equilibrium criterion was not met, after one hour. The percent weight change values were calculated using Microsoft Excel.
(§1) The DVS analysis was carried out using a TA Instruments Q5000 Dynamic Vapor Sorption analyzer. 13.5 mg of sample was loaded into a metal-coated quartz pan for analysis. After equilibration to 5% relative humidity (RH), the sample was analyzed at 25° C. in 10% RH steps from 5 to 95% RH (adsorption cycle) and from 95 to 5% RH (desorption cycle). The movement from one step to the next occurred either after satisfying the equilibrium criterion of 0.01% weight change in 5 minutes or, if the equilibrium criterion was not met, after 90 minutes. The percent weight change values are calculated using Microsoft Excel®.
as §1, with “DVS analyses were” for “DVS analysis was”, “analyzer. Approximately 7-11” for “analyzer. 13.5”, “equilibration at” for “equilibration to”, “values were” for “values are”
as §1, with “analyzer. Approximately 2” for “analyzer. 13.5”, “equilibration at” for “equilibration to”, “values were” for “values are”

[4] = Deliquescence at 75% RH at ambient temperature; assay type: physicochemical
[5] = Experimental: Solubilities in water were estimated for the majority of the salts identified during screening. The experiments were carried out by adding water in aliquots to weighed portions of solid. […] Values are reported as “≥” if complete dissolution was observed upon the first aliquot.
[6] = Estimated solubilities of 2C-B HCl in solvents; conditions: thermodynamic from solid
[7] = MeOH/CHCl3 50/50, organic solvent or mixture
[8] = acetone, organic solvent or mixture
[9] = acetone/H2O 80/20, organic solvent or mixture
[10] = several days at 75% RH at ambient temperature

Row | Molecule | Water uptake (5-85% RH) % [2] [%] | Water uptake (85-95% RH) % [2] | Hygroscopicity: weight gain ([2]; <85% RH) | Hygroscopicity: weight gain ([2]; >85% RH) | Hygroscopicity [2] | Water uptake (5-95% RH) % ([2]; 5-95% RH) [%] | hygroscopicity based on DVS data [3] | moisture gain by DVS [3] [%] | moisture gain by DVS, equivalent moles of water [3] | post-DVS XRPD result [3] | DVS desorption weight loss, 85-5% RH [3] | DVS desorption weight loss, 95-85% RH [3] | behaviour on desorption / form change by XRPD of post-DVS sample [3] | DVS desorption total loss [3] | DVS sorption weight gain, 5-85% RH [3] | DVS sorption weight gain, 85-95% RH [3] | DVS sorption total gain [3] | deliquescence ([4]; at 75% RH) | deliquescence [4, 10] | also measured
1 | COc1cc(CCN)c(OC)cc1Br [2C-B.HCl, 4-bromo-2,5-dimethoxyphenethylamine hydrochloride] | – | – | – | – | – | – | – | – | – | – | – | – | – | – | – | – | – | – | – | solubility [1, 7]: 41 mg/mL; solubility [1, 8]: < 2 mg/mL; solubility [1, 9]: > 79 mg/mL; solubility ([1]; acetonitrile, organic solvent or mixture): < 1 mg/mL; solubility ([1]; ethanol, organic solvent or mixture): 13 mg/mL; solubility ([1]; ethyl acetate, organic solvent or mixture): < 2 mg/mL; solubility ([1]; isopropanol, organic solvent or mixture): < 2 mg/mL; solubility ([1]; methanol, organic solvent or mixture): 41 mg/mL; solubility ([1]; tetrahydrofuran, organic solvent or mixture): < 2 mg/mL; solubility ([1]; water): 34 mg/mL
2 | 2C-B malate | 0.6 | (5-85); 1 (85-95) % | RH: 0.6% | RH: 1.0% gain | Slightly | 1.6 | slightly hygroscopic | 1.6 | approximately 0.4 moles | Consistent with Malate | 85-5% RH: 0.6% loss | 95-85% RH: 1.0% loss | all the gained moisture is lost without form change | Total loss: 1.6% | 5-85% RH: 0.6% gain | 85-95% RH: 1.0% gain | Total gain: 1.6% | Did not deliquesce | not observed | Kinetic water solubility [5]: 6 mg/mL; estimated kinetic solubility in water ([5]; room temperature, visually determined): 6 mg/mL; aqueous solubility (kinetic) ([5]; water, kinetic estimate): 6 mg/mL aqueous; Estimated kinetic aqueous solubility ([5]; water, room temperature, * = a few particulates/flakes remaining (see comments)): 6 mg/mL
3 | COc1cc(CCN)c(OC)cc1Br.Cl [2C-B HCl, 4-bromo-2,5-dimethoxyphenethylamine HCl] | – | – | – | – | – | – | – | – | – | – | – | – | – | – | – | – | – | – | – | DVS Sorption: weight gain ([2]; 5-95% RH): 5-95% RH: 0.9% gain; DVS Desorption: weight loss ([2]; 95-5% RH): 95-5% RH: 1.0% loss; post-DVS XRPD ([3]; solid form after DVS cycle): Form A; solubility ([6]; ACN, organic solvent or mixture): < 1 mg/mL; solubility ([6]; EtOAc, organic solvent or mixture): < 2 mg/mL; solubility ([6]; EtOH, organic solvent or mixture): 13 mg/mL; solubility ([6]; H2O, water): 34 mg/mL; solubility ([6]; IPA, organic solvent or mixture): < 2 mg/mL; solubility ([6]; MeOH, organic solvent or mixture): 41 mg/mL; solubility [6, 7]: 41 mg/mL; solubility ([6]; THF, organic solvent or mixture): < 2 mg/mL; solubility [6, 8]: < 2 mg/mL; solubility [6, 9]: ≥ 79 mg/mL
4 | 2C-B glycolate | 0.9 | (5-85), 2.7 (85-95) % | RH: 0.9% | RH: 2.7% gain | Mod. hygroscopic; <85% | 3.6 | moderately hygroscopic | 3.6 | 0.7 mol | Consistent with Glycolate | 85-5% RH: 1.1% loss | 95-85% RH: 2.6% loss | form change is not apparent by XRPD | Total loss: 3.7% | 5-85% RH: 0.9% gain | 85-95% RH: 2.7% gain | Total gain: 3.6% | Did not deliquesce | not observed | moisture gain by DVS above 85% RH ([3]; above 85% RH): 2.7%
5 | COc1cc(CCN)c(OC)cc1Br.O=C(O)CC(O)(CC(=O)O)C(=O)O [Citrate (Form 2), 2C-B Citrate] | – | – | – | – | Slightly | – | slightly hygroscopic | 0.5 | 0.1 mol | Consistent with Citrate (Form 2) | – | – | form change does not occur | – | – | – | – | Did not deliquesce | not observed | Hygroscopicity: weight gain ([2]; 5-95% RH): 5-95% RH: 0.5%; DVS desorption weight loss, 95-5% RH ([3]; desorption 95-5% RH): 95-5% RH: 0.5% loss; DVS sorption weight gain, 5-95% RH ([3]; sorption 5-95% RH): 5-95% RH: 0.5% gain
